Laboratory results taken from patent US9498483B2, “2,3,5-trisubstituted thiophene compounds and uses thereof” (priority 2010, dated 2016).

Key:
[1] = test system: HCV replicon I389luc-ubi-neo/NS3-3′/ET in ET (Huh-lucubineo-ET) cells; experiment: Replicon assay (Biological Example 2), luciferase readout; assay type: cell-based; conditions: Hepatitis C virus
Outline: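 EC50 values come from Hill fits of % inhibition of replicon-driven firefly luciferase, relative to no-compound wells. Compounds were serially diluted (10 points, 3-fold, 0.1 nM–50 μM final, 0.5% DMSO) onto ET replicon cells and read after 48 h.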

[2] = molecular target: T1, HCV polymerase (Hepatitis C virus genotype 1b, UniProt Q9WMX2); experiment: Polymerase assay of Biological Example 1 (IC50 values of Table 3); assay type: biochemical; conditions: IC50 values of Table 3, polymerase assay of Biological Example 1; read-out: NS5B-enzyme3
T1 construct: (His)6 (C); made in house; host or cells: XL-1 cells (E. coli, by own knowledge)

[3] = ET cells, luciferase activity 48 hours after compound

Row | Compound | IC50 [1, 3] [nM] | IC50 [2] [nM] | IC50 ([1]; between 100 nM and 5.0 uM) [nM]
1 | COC[C@@H]1CCCN1c1ccc(S(=O)(=O)N2CC(=O)N(c3cc(-c4ccccc4)sc3C(=O)O)[C@H](C3CCCCC3)C2)cn1 [Compound 171, 3-{(R)-2-Cyclohexyl-4-[6-((S)-2-methoxymethyl-pyrrolidin-1-yl)-pyridine-3-sulfonyl]-6-oxo-piperazin-1-yl}-5-phenyl-thiophene-2-carboxylic acid] | ≤ 100 | 2 | 
2 | Cc1cc(S(=O)(=O)N2CC(=O)N(c3cc(-c4ccccc4)sc3C(=O)O)[C@H](C3CCCCC3)C2)cnc1N1CCCC1 [Compound 172, 3-[(R)-2-Cyclohexyl-4-(5-methyl-6-pyrrolidin-1-yl-pyridine-3-sulfonyl)-6-oxo-piperazin-1-yl]-5-phenyl-thiophene-2-carboxylic acid] | ≤ 100 | 1.2 | 
3 | Cc1cc(S(=O)(=O)N2CC(=O)N(c3cc(-c4ccccc4)sc3C(=O)O)[C@H](C3CCCCC3)C2)cnc1N1CCC[C@H]1C [Compound 173, 3-{(R)-2-Cyclohexyl-4-[5-methyl-6-((R)-2-methyl-pyrrolidin-1-yl)-pyridine-3-sulfonyl]-6-oxo-piperazin-1-yl}-5-phenyl-thiophene-2-carboxylic acid] | ≤ 100 | 1 | 
4 | Cc1ccc(CN2CC(=O)N(c3cc(C#CC(C)(C)C)sc3C(=O)O)C(C3CCCCC3)C2)cc1 (centres unmarked) [Compound 174, 3-[2-Cyclohexyl-4-(4-methyl-benzyl)-6-oxo-piperazin-1-yl]-5-(3,3-dimethyl-but-1-ynyl)-thiophene-2-carboxylic acid] | ≥ 5000 | 5110 | 
5 | CC(C)(C)C#Cc1cc(N2C(=O)CNCC2C2CCCCC2)c(C(=O)O)s1 (centres unmarked) [Compound 175, 3-(2-Cyclohexyl-6-oxo-piperazin-1-yl)-5-(3,3-dimethyl-but-1-ynyl)-thiophene-2-carboxylic acid] | ≥ 5000 | > 10000 | 
6 | CC(C)c1ccc(S(=O)(=O)N2CC(=O)N(c3cc(C#CC(C)(C)C)sc3C(=O)O)[C@H](C3CCCCC3)C2)cc1 [Compound 176, 3-[(R)-2-Cyclohexyl-4-(4-isopropyl-benzenesulfonyl)-6-oxo-piperazin-1-yl]-5-(3,3-dimethyl-but-1-ynyl)-thiophene-2-carboxylic acid] | ≤ 100 | 1410 | 
7 | CCN(CC)c1ccc(S(=O)(=O)N2CC(=O)N(c3cc(-c4ccccc4)sc3C(=O)O)[C@H](C3CCCCC3)C2)cn1 [Compound 177, 3-[(R)-2-Cyclohexyl-4-(6-diethylamino-pyridine-3-sulfonyl)-6-oxo-piperazin-1-yl]-5-phenyl-thiophene-2-carboxylic acid] | ≤ 100 | 2 | 
8 | O=C(O)c1sc(-c2ccccc2)cc1N1C(=O)CN(S(=O)(=O)c2ccc(-c3ccccc3)nc2)C[C@H]1C1CCCCC1 [Compound 178, 3-[(R)-2-Cyclohexyl-6-oxo-4-(6-phenyl-pyridine-3-sulfonyl)-piperazin-1-yl]-5-phenyl-thiophene-2-carboxylic acid] |  | 1 | 100 to 5000
9 | O=C(O)c1sc(-c2ccccc2)cc1N1C(=O)CN(S(=O)(=O)c2ccc(N3CCCCC3)nc2)C[C@H]1C1CCCCC1 [Compound 179, 3-[(R)-2-Cyclohexyl-6-oxo-4-(3,4,5,6-tetrahydro-2H-[1,2′]bipyridinyl-5′-sulfonyl)-piperazin-1-yl]-5-phenyl-thiophene-2-carboxylic acid] | ≤ 100 | 1 | 
10 | Cc1ccc(-c2cc(N3C(=O)CN(S(=O)(=O)c4ccc(N5CCC[C@H]5C)nc4)C[C@H]3C3CCCCC3)c(C(=O)O)s2)cc1 [Compound 180, 3-{(R)-2-Cyclohexyl-4-[6-((R)-2-methyl-pyrrolidin-1-yl)-pyridine-3-sulfonyl]-6-oxo-piperazin-1-yl}-5-p-tolyl-thiophene-2-carboxylic acid] | ≤ 100 | < 0.2 | 
11 | CC(C)(C)C#Cc1cc(N2C(=O)OC[C@H]2C2CCCCC2)c(C(=O)O)s1 [Compound 181, 3-((R)-4-Cyclohexyl-2-oxo-oxazolidin-3-yl)-5-(3,3-dimethyl-but-1-ynyl)-thiophene-2-carboxylic acid] |  | 3 | 100 to 5000
12 | O=C(O)c1sc(-c2ccccc2)cc1N1C(=O)CN(Cc2ccc(N3CCCC3)nc2)C[C@H]1C1CCCCC1 [Compound 182, 3-[(R)-2-Cyclohexyl-6-oxo-4-(6-pyrrolidin-1-yl-pyridin-3-ylmethyl)-piperazin-1-yl]-5-phenyl-thiophene-2-carboxylic acid] | ≤ 100 | 2 | 
13 | C[C@@H]1CCCCN1c1ccc(S(=O)(=O)N2CC(=O)N(c3cc(-c4ccccc4)sc3C(=O)O)[C@H](C3CCCCC3)C2)cn1 [Compound 183, 3-[(R)-2-Cyclohexyl-4-((R)-2-methyl-3,4,5,6-tetrahydro-2H-[1,2′]bipyridinyl-5′-sulfonyl)-6-oxo-piperazin-1-yl]-5-phenyl-thiophene-2-carboxylic acid] | ≤ 100 | 1.8 | 
14 | O=C(O)c1sc(-c2ccccc2)cc1N1C(=O)CN(S(=O)(=O)c2ccc(N3CCOCC3)nc2)C[C@H]1C1CCCCC1 [Compound 184, 3-[(R)-2-Cyclohexyl-4-(6-morpholin-4-yl-pyridine-3-sulfonyl)-6-oxo-piperazin-1-yl]-5-phenyl-thiophene-2-carboxylic acid] | ≤ 100 | 1.7 | 
15 | C[C@@H]1CCCN1c1ccc(S(=O)(=O)N2CC(=O)N(c3cc(-c4ccc(F)cc4)sc3C(=O)O)[C@H](C3CCCCC3)C2)cn1 [Compound 185, 3-{(R)-2-Cyclohexyl-4-[6-((R)-2-methyl-pyrrolidin-1-yl)-pyridine-3-sulfonyl]-6-oxo-piperazin-1-yl}-5-(4-fluoro-phenyl)-thiophene-2-carboxylic acid] | ≤ 100 | 1 | 
16 | O=C(O)c1sc(-c2ccc(F)cc2)cc1N1C(=O)CN(S(=O)(=O)c2ccc(N3CCCOCC3)nc2)C[C@H]1C1CCCCC1 [Compound 186, 3-[(R)-2-Cyclohexyl-4-(6-[1,4]oxazepan-4-yl-pyridine-3-sulfonyl)-6-oxo-piperazin-1-yl]-5-(4-fluoro-phenyl)-thiophene-2-carboxylic acid] | ≤ 100 | 1 | 
17 | Cc1ccc(-c2cc(N3C(=O)CN(S(=O)(=O)c4ccc(N5CCOCC5)nc4)C[C@H]3C3CCCCC3)c(C(=O)O)s2)cc1 [Compound 187, 3-[(R)-2-Cyclohexyl-4-(6-morpholin-4-yl-pyridine-3-sulfonyl)-6-oxo-piperazin-1-yl]-5-p-tolyl-thiophene-2-carboxylic acid] | ≤ 100 | 1 | 
18 | Cc1ccc(-c2cc(N3C(=O)CN(S(=O)(=O)c4ccc(N5CCCOCC5)nc4)C[C@H]3C3CCCCC3)c(C(=O)O)s2)cc1 [Compound 188, 3-[(R)-2-Cyclohexyl-4-(6-[1,4]oxazepan-4-yl-pyridine-3-sulfonyl)-6-oxo-piperazin-1-yl]-5-p-tolyl-thiophene-2-carboxylic acid] | ≤ 100 | 1 | 
19 | O=C(O)c1sc(-c2ccc(F)cc2)cc1N1C(=O)CN(S(=O)(=O)c2ccc(N3CCOCC3)nc2)C[C@H]1C1CCCCC1 [Compound 189, 3-[(R)-2-Cyclohexyl-4-(6-morpholin-4-yl-pyridine-3-sulfonyl)-6-oxo-piperazin-1-yl]-5-(4-fluoro-phenyl)-thiophene-2-carboxylic acid] | ≤ 100 | 1 | 
20 | COc1ccc(S(=O)(=O)N2CC(=O)N(c3cc(C#CC(C)(C)C)sc3C(=O)O)[C@H](C3CCCCC3)C2)cc1 [Compound 190, 3-[(R)-2-Cyclohexyl-4-(4-methoxy-benzenesulfonyl)-6-oxo-piperazin-1-yl]-5-(3,3-dimethyl-but-1-ynyl)-thiophene-2-carboxylic acid] | ≤ 100 | 1 | 
21 | COc1ccc(S(=O)(=O)N2CC(=O)N(c3cc(C#CC(C)(C)C)sc3C(=O)O)[C@H](C3CCCCC3)C2)cn1 [Compound 191, 3-[(R)-2-Cyclohexyl-4-(6-methoxy-pyridine-3-sulfonyl)-6-oxo-piperazin-1-yl]-5-(3,3-dimethyl-but-1-ynyl)-thiophene-2-carboxylic acid] | ≤ 100 | 1 | 
22 | CC(C)(C)C#Cc1cc(N2C(=O)CN(S(=O)(=O)c3cccnc3)C[C@H]2C2CCCCC2)c(C(=O)O)s1 [Compound 192, 3-[(R)-2-Cyclohexyl-6-oxo-4-(pyridine-3-sulfonyl)-piperazin-1-yl]-5-(3,3-dimethyl-but-1-ynyl)-thiophene-2-carboxylic acid] | ≤ 100 | 3 | 
23 | Cn1ccc(S(=O)(=O)N2CC(=O)N(c3cc(C#CC(C)(C)C)sc3C(=O)O)[C@H](C3CCCCC3)C2)n1 [Compound 193, 3-[(R)-2-Cyclohexyl-4-(1-methyl-1H-pyrazole-3-sulfonyl)-6-oxo-piperazin-1-yl]-5-(3,3-dimethyl-but-1-ynyl)-thiophene-2-carboxylic acid] | ≤ 100 | 1 | 
24 | O=C(O)c1sc(-c2ccccc2)cc1N1C(=O)CN(S(=O)(=O)c2ccc(NC3CCOCC3)nc2)C[C@H]1C1CCCCC1 [Compound 194, 3-{(R)-2-Cyclohexyl-6-oxo-4-[6-(tetrahydro-pyran-4-ylamino)-pyridine-3-sulfonyl]-piperazin-1-yl}-5-phenyl-thiophene-2-carboxylic acid] | ≤ 100 | 2 | 
25 | C[C@@H]1COCCN1c1ccc(S(=O)(=O)N2CC(=O)N(c3cc(-c4ccc(F)cc4)sc3C(=O)O)[C@H](C3CCCCC3)C2)cn1 [Compound 195, 3-{(R)-2-Cyclohexyl-4-[6-((R)-3-methyl-morpholin-4-yl)-pyridine-3-sulfonyl]-6-oxo-piperazin-1-yl}-5-(4-fluoro-phenyl)-thiophene-2-carboxylic acid] | ≤ 100 | 3 | 
